We go through three compounds from paper PMC4685510, “A Cell Biologist’s Field Guide to Aurora Kinase Inhibitors” (Frontiers in Oncology, 2015).

Structures are written as SMILES.

Assay in all cases: biochemical
Common to all, as to type: biochemical

Assay [1] has as its target 363 human kinases (including Aurora A/B/C) (Homo sapiens, UniProt P49137). To be noted: MAPKAPK2; for remaining activity at 0.5 µM / remaining activity at 0.1 µM: read-out: % Enzyme Activity (relative to DMSO controls); for remaining activity at 0.1 µM: 100 nM.
Excerpt: (§1) However, the Aurora A/B selectivity ratios derived from our in vitro and in vivo data can be compared to prioritize inhibitors.
Assay [2] has as its target 363 human kinases (including Aurora A/B/C) (Homo sapiens, UniProt Q9UEW8). To be noted: STK39/STLK3; for remaining activity at 0.5 µM / remaining activity at 0.1 µM: read-out: % Enzyme Activity (relative to DMSO controls); for remaining activity at 0.1 µM: 100 nM.
Excerpt: as §1
The target in assay [3] is 363 human kinases (including Aurora A/B/C) (Homo sapiens, UniProt P54756). To be noted: EPHA5, [ATP] 30 µM; for remaining activity at 0.5 µM / remaining activity at 0.1 µM: read-out: % Enzyme Activity (relative to DMSO controls); for remaining activity at 0.1 µM: 100 nM.
Chain of 363 human kinases (including Aurora A/B/C) (Homo sapiens, UniProt P54756) (P54756 25-1037): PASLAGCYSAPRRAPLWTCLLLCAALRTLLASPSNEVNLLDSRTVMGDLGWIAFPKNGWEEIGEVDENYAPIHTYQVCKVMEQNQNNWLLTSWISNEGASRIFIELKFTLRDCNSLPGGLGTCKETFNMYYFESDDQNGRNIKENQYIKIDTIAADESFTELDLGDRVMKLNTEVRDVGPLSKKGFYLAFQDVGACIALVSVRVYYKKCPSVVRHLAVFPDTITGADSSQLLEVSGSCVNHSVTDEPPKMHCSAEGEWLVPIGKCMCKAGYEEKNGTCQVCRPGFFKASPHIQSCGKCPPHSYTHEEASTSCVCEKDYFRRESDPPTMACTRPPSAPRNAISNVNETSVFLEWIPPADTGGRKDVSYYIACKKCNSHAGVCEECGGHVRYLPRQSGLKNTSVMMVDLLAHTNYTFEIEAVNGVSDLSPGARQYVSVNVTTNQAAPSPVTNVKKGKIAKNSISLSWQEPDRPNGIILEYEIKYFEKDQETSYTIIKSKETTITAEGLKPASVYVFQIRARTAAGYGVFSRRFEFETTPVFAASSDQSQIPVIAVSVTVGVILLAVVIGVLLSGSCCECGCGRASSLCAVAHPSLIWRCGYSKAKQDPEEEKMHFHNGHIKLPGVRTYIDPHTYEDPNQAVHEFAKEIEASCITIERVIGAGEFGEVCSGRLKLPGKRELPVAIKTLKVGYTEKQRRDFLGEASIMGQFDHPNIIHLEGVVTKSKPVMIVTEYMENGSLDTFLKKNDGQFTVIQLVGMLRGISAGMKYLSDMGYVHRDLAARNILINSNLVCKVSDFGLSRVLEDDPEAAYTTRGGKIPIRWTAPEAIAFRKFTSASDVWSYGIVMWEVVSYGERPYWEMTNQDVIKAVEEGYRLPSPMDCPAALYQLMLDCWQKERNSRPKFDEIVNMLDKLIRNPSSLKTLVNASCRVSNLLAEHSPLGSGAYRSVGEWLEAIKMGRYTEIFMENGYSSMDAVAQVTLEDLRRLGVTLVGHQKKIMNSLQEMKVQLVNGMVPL
Excerpt: as §1
The target in assay [4] is T1, 363 human kinases (including Aurora A/B/C) (Homo sapiens, UniProt P54753).
T1 sequence (P54753 34-998): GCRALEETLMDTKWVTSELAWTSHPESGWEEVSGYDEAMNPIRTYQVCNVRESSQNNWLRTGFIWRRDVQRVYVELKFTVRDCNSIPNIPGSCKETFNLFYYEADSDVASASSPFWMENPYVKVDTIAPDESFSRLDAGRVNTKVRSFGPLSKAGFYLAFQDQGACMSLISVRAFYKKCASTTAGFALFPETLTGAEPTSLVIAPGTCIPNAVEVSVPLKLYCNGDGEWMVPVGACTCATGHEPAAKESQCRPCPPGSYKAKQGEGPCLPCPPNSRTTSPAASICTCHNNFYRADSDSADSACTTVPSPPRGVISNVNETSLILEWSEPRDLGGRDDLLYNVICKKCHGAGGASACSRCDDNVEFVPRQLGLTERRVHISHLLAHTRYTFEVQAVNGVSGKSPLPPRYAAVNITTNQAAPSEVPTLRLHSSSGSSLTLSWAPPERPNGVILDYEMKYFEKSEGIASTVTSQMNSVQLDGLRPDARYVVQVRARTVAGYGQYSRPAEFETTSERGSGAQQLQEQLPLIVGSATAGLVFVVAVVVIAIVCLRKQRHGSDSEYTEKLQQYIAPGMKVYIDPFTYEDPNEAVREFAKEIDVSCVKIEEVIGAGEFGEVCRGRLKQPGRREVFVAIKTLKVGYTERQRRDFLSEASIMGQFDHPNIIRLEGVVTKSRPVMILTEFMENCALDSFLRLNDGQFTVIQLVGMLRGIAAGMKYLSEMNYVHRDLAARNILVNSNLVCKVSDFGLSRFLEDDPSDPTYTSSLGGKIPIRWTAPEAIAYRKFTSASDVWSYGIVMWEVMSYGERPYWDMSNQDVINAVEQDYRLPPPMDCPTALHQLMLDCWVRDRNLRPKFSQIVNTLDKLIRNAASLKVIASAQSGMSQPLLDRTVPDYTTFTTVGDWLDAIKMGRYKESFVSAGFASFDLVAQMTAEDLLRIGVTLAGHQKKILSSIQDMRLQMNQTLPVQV
Particulars: EPHB3, [ATP] 50 µM; for remaining activity at 0.5 µM / remaining activity at 0.1 µM: read-out: % Enzyme Activity (relative to DMSO controls); for remaining activity at 0.1 µM: 100 nM.
Excerpt: as §1

Assay [5] concerns the target T2, 363 human kinases (including Aurora A/B/C) (Homo sapiens, UniProt P53778).
T2 sequence (P53778 1-367): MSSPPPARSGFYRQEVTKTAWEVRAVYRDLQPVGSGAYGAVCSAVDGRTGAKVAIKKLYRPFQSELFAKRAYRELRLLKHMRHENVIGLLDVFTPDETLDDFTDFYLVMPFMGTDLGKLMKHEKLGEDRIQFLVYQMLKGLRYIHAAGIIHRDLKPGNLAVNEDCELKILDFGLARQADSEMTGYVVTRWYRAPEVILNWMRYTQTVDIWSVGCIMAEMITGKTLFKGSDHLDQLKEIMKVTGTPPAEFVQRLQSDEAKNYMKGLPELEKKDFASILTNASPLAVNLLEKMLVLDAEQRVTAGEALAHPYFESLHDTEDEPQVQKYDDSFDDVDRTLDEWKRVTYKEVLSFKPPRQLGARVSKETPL
To be noted: P38g; for remaining activity at 0.5 µM / remaining activity at 0.1 µM: read-out: % Enzyme Activity (relative to DMSO controls); for remaining activity at 0.1 µM: 100 nM.
Excerpt: as §1

The target in assay [6] is T3, 363 human kinases (including Aurora A/B/C) (Homo sapiens, UniProt Q8IVH8).
T3 sequence (Q8IVH8 1-894): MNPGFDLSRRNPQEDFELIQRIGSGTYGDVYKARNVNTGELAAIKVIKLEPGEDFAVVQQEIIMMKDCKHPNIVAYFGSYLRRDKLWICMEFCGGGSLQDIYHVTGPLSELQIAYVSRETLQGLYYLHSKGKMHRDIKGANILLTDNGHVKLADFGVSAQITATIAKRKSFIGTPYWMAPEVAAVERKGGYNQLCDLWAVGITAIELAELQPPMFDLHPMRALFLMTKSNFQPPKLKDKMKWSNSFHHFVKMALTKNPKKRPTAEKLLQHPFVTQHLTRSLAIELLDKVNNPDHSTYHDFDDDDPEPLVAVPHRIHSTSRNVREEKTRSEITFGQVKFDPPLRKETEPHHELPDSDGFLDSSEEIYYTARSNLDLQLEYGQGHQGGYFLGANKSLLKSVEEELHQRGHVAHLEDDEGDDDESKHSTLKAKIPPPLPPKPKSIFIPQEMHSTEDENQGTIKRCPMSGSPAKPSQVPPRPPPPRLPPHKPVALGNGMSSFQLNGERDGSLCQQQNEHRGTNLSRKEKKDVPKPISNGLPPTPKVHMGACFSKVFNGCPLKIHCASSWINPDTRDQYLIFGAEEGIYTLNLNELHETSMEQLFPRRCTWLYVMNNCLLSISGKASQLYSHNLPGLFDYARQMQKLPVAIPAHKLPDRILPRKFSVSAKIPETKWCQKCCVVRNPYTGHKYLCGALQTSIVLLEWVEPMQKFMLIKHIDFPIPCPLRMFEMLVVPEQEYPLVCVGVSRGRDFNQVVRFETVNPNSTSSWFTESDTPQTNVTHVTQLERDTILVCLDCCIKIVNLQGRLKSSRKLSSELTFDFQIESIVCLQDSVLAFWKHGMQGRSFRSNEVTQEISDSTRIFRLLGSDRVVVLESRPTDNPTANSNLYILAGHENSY
To be noted: GLK/MAP4K3; for remaining activity at 0.5 µM / remaining activity at 0.1 µM: read-out: % Enzyme Activity (relative to DMSO controls); for remaining activity at 0.1 µM: 100 nM.
Excerpt: as §1

For assay [7], the target named is 363 human kinases (including Aurora A/B/C) (Homo sapiens, UniProt Q92918). To be noted: HPK1/MAP4K1; for remaining activity at 0.5 µM / remaining activity at 0.1 µM: read-out: % Enzyme Activity (relative to DMSO controls); for remaining activity at 0.1 µM: 100 nM.
Chain of 363 human kinases (including Aurora A/B/C) (Homo sapiens, UniProt Q92918) (Q92918 whole entry): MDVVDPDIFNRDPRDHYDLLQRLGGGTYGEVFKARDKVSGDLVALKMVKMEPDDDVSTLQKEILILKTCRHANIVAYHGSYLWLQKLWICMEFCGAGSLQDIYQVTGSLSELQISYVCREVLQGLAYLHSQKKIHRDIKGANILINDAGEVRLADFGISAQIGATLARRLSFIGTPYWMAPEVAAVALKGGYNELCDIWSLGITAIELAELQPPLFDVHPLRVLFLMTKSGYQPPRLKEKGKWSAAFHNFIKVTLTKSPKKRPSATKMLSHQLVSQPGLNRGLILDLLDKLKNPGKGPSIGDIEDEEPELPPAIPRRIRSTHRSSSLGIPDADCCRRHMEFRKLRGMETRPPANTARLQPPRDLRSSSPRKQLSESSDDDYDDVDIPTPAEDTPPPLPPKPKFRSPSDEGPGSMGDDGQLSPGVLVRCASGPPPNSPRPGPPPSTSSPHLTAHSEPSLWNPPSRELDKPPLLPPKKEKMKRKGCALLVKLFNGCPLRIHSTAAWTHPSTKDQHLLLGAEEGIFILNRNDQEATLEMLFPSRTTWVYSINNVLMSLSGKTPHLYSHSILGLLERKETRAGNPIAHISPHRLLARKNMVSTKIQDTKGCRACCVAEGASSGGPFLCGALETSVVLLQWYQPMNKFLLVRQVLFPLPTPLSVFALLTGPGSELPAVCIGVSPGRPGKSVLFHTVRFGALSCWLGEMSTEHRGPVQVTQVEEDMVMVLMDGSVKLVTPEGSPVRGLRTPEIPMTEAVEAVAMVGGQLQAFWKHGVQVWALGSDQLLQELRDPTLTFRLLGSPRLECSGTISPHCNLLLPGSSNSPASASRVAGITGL
Excerpt: as §1

Chain of 363 human kinases (including Aurora A/B/C) (Homo sapiens, UniProt P49137) (P49137 whole entry): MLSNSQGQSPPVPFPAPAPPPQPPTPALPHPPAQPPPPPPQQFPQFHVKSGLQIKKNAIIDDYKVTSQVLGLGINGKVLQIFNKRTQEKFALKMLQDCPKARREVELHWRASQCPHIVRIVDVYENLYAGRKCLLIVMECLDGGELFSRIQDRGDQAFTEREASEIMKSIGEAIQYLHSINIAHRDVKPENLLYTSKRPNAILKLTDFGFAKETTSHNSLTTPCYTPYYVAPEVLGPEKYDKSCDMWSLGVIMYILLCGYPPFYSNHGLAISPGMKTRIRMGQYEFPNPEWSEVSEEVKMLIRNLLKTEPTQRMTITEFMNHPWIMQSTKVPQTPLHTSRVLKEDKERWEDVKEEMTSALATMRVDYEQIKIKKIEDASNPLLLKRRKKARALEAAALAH

For `O=C(c1cccc(Cl)c1F)N1CCN(Cc2cccc(Nc3nccs3)n2)CC1` [MK-8745], the “% Enzyme Activity (relative to DMSO controls)” value in assay [1] (500 nM) is 92.28%; in assay [2] (500 nM) it was 98.73%; in assay [3] (500 nM), 84.08%; in assay [4] (500 nM) it was 92.59%; in assay [5] (500 nM), 107.28%; in assay [6] (500 nM), 88.41%. The “% Enzyme Activity (relative to DMSO controls)” value in assay [7] (500 nM) is 81.94%. Moreover, the remaining activity at 0.5 µM in assay [1] (500 nM) worked out at 92.9%; in assay [2] (500 nM), 99.8%; in assay [3] (500 nM), 84.2%; in assay [4] (500 nM), 93%; in assay [5] (500 nM), 110%; in assay [6] (500 nM), 88.7%. In assay [7] (500 nM), the remaining activity at 0.5 µM stood at 87.3%.

Consider `CCn1cc(-c2ccnc3[nH]c(-c4cccc(CN(C)C)c4)cc23)c(-c2ccc(NC(=O)N(C)C)cc2)n1` [GSK1070916], for which the remaining activity at 0.1 µM in assay [1] turned out to be 95.6%; in assay [2], 100%; in assay [3], 101%; in assay [4] it was 94.5%; in assay [5], 115%; in assay [6], 88.3%. Also, the remaining activity at 0.1 µM in assay [7] came to 109%.

Consider `O=C(O)[C@]1(Cc2cccc(Nc3nccs3)n2)CC[C@@H](Oc2cccc(Cl)c2F)CC1` [MK-5108], for which the remaining activity at 0.1 µM was 102% in assay [1]; 105% in assay [2]; 48.6% in assay [3]; 102% in assay [4]; 100% in assay [5]; 103% in assay [6]. Moreover, the remaining activity at 0.1 µM in assay [7] is 105%. For the same compound, the remaining activity at 0.5 µM in assay [1] (500 nM) was 100%; in assay [2] (500 nM), 97.4%; in assay [3] (500 nM), 24.4%; in assay [4] (500 nM) it was 89.5%; in assay [5] (500 nM) it was 112%; in assay [6] (500 nM), 82.7%. Moreover, in assay [7] (500 nM), the remaining activity at 0.5 µM was 82.1%.
